# Source: PubChem BioAssay AID1963847 (Molecular Pharmacology Branch, DTP, NCI, 2024)
# Test system: 415267-285-R-J2-PDC complex spheroid viability
# Assay: Anticancer human tumor 415267-285-R-J2-PDC patient-derived breast carcinoma cell line growth inhibition [POLQ]
# Conditions: for IC50: curve of first compound; for viability, T/C: stronger effect = lower value
# In short: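 Patient-derived tumour cells were co-cultured with HUVEC and mesenchymal stem cells as multicellular spheroids at 37 °C. They were treated with POLQ inhibitors (novobiocin, ART-558, RP6685) alone or combined with other agents. Top concentrations were at or near clinical Cmax (otherwise 10 microM; SN-38 at 1 microM), decreasing in half-log steps.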
# [1] = second compound 0.0316 µM, first compound 0.0316 µM
# [2] = second compound 0.0316 µM, first compound 0.1 µM
# [3] = second compound 0.0316 µM, first compound 0.316 µM
# [4] = second compound 0.0316 µM, first compound 1 µM
# [5] = second compound 0.0316 µM, first compound 3.16 µM
# [6] = second compound 0.0316 µM, first compound 10 µM
# [7] = second compound 0.1 µM, first compound 0.0316 µM
# [8] = second compound 0.1 µM, first compound 0.1 µM
# [9] = second compound 0.1 µM, first compound 0.316 µM
# [10] = second compound 0.1 µM, first compound 1 µM
# [11] = second compound 0.1 µM, first compound 3.16 µM
# [12] = second compound 0.1 µM, first compound 10 µM
# [13] = second compound 0.316 µM, first compound 0.0316 µM
# [14] = second compound 0.316 µM, first compound 0.1 µM
# [15] = second compound 0.316 µM, first compound 0.316 µM
# [16] = second compound 0.316 µM, first compound 1 µM
# [17] = second compound 0.316 µM, first compound 3.16 µM
# [18] = second compound 0.316 µM, first compound 10 µM
# [19] = second compound 1 µM, first compound 0.0316 µM
# [20] = second compound 1 µM, first compound 0.1 µM
# [21] = second compound 1 µM, first compound 0.316 µM
# [22] = second compound 1 µM, first compound 1 µM
# [23] = second compound 1 µM, first compound 3.16 µM
# [24] = second compound 1 µM, first compound 10 µM
# [25] = second compound 3.16 µM, first compound 0.0316 µM
# [26] = second compound 3.16 µM, first compound 0.1 µM
# [27] = second compound 3.16 µM, first compound 0.316 µM
# [28] = second compound 3.16 µM, first compound 1 µM
# [29] = second compound 3.16 µM, first compound 3.16 µM
# [30] = second compound 3.16 µM, first compound 10 µM
# [31] = second compound 10 µM, first compound 0.0316 µM
# [32] = second compound 10 µM, first compound 0.1 µM
# [33] = second compound 10 µM, first compound 0.316 µM
# [34] = second compound 10 µM, first compound 1 µM
# [35] = second compound 10 µM, first compound 3.16 µM
# [36] = second compound 10 µM, first compound 10 µM
# 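Further: spheroids exposed to compounds for one week before readout.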
# 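Wherever viability, T/C is given: luminescence used as stand-in measure of viable cells; 100% = DMSO vehicle control viability.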
smiles,measurement,setting,value
CNCc1ccc(-c2[nH]c3cc(F)cc4c3c2CCNC4=O)cc1 + COC1C(OC(N)=O)C(O)C(Oc2ccc3c(O)c(NC(=O)c4ccc(O)c(CC=C(C)C)c4)c(=O)oc3c2C)OC1(C)C,IC50,second compound 0.0316 µM,> 10 µM
same,IC50,second compound 0.1 µM,> 10 µM
same,IC50,second compound 0.316 µM,> 10 µM
same,IC50,second compound 1 µM,> 10 µM
same,IC50,second compound 3.16 µM,> 10 µM
same,IC50,second compound 10 µM,> 10 µM
same,"viability, T/C",[1],114%
same,"viability, T/C",[2],104%
same,"viability, T/C",[3],99%
same,"viability, T/C",[4],113%
same,"viability, T/C",[5],117%
same,"viability, T/C",[6],113%
same,"viability, T/C",[7],97.7%
same,"viability, T/C",[8],103%
same,"viability, T/C",[9],117%
same,"viability, T/C",[10],107%
same,"viability, T/C",[11],106%
same,"viability, T/C",[12],106%
same,"viability, T/C",[13],95.7%
same,"viability, T/C",[14],109%
same,"viability, T/C",[15],95.3%
same,"viability, T/C",[16],114%
same,"viability, T/C",[17],102%
same,"viability, T/C",[18],98.8%
same,"viability, T/C",[19],115%
same,"viability, T/C",[20],105%
same,"viability, T/C",[21],97.8%
same,"viability, T/C",[22],127%
same,"viability, T/C",[23],102%
same,"viability, T/C",[24],98.7%
same,"viability, T/C",[25],95%
same,"viability, T/C",[26],99.4%
same,"viability, T/C",[27],120%
same,"viability, T/C",[28],116%
same,"viability, T/C",[29],102%
same,"viability, T/C",[30],104%
same,"viability, T/C",[31],104%
same,"viability, T/C",[32],108%
same,"viability, T/C",[33],104%
same,"viability, T/C",[34],106%
same,"viability, T/C",[35],99.9%
same,"viability, T/C",[36],111%
C=CCn1c(=O)c2cnc(Nc3ccc(N4CCN(C)CC4)cc3)nc2n1-c1cccc(C(C)(C)O)n1 + Nc1ccc(C#CCN(C(=O)Cc2ncc(C(F)(F)F)cc2C(F)(F)F)c2ccc(F)cc2)nn1,IC50,second compound 0.0316 µM,0.447 µM
same,IC50,second compound 0.1 µM,0.404 µM
same,IC50,second compound 0.316 µM,0.427 µM
same,IC50,second compound 1 µM,0.396 µM
same,IC50,second compound 3.16 µM,0.342 µM
same,IC50,second compound 10 µM,0.318 µM
same,"viability, T/C","second compound 0.0316 µM, first compound 0.00316 µM",95.1%
same,"viability, T/C","second compound 0.0316 µM, first compound 0.01 µM",102%
same,"viability, T/C",[1],94.8%
same,"viability, T/C",[2],98.2%
same,"viability, T/C",[3],69%
same,"viability, T/C",[4],5.9%
same,"viability, T/C","second compound 0.1 µM, first compound 0.00316 µM",107%
same,"viability, T/C","second compound 0.1 µM, first compound 0.01 µM",104%
same,"viability, T/C",[7],102%
same,"viability, T/C",[8],87.6%
same,"viability, T/C",[9],62.2%
same,"viability, T/C",[10],6.38%
same,"viability, T/C","second compound 0.316 µM, first compound 0.00316 µM",108%
same,"viability, T/C","second compound 0.316 µM, first compound 0.01 µM",108%
same,"viability, T/C",[13],86.9%
same,"viability, T/C",[14],96.3%
same,"viability, T/C",[15],65.5%
same,"viability, T/C",[16],5.51%
same,"viability, T/C","second compound 1 µM, first compound 0.00316 µM",104%
same,"viability, T/C","second compound 1 µM, first compound 0.01 µM",95%
same,"viability, T/C",[19],101%
same,"viability, T/C",[20],87%
same,"viability, T/C",[21],61.1%
same,"viability, T/C",[22],4.94%
same,"viability, T/C","second compound 3.16 µM, first compound 0.00316 µM",106%
same,"viability, T/C","second compound 3.16 µM, first compound 0.01 µM",93.1%
same,"viability, T/C",[25],95.3%
same,"viability, T/C",[26],92.5%
same,"viability, T/C",[27],53%
same,"viability, T/C",[28],7.32%
same,"viability, T/C","second compound 10 µM, first compound 0.00316 µM",94.3%
same,"viability, T/C","second compound 10 µM, first compound 0.01 µM",95.5%
same,"viability, T/C",[31],107%
same,"viability, T/C",[32],91.7%
same,"viability, T/C",[33],50.3%
same,"viability, T/C",[34],5.62%
CC1COCCN1c1cc(C2(O)CC3CCC(C2)O3)c2cnn(-c3ccn[nH]3)c2n1 (stereo not drawn) + Cc1cccc(N(C)C(=O)C2C(O)CCN2c2nc(C)cc(C(F)(F)F)c2C#N)c1,IC50,second compound 0.0316 µM,< 0.0316 µM
same,IC50,second compound 0.1 µM,< 0.0316 µM
same,IC50,second compound 0.316 µM,< 0.0316 µM
same,IC50,second compound 1 µM,< 0.0316 µM
same,IC50,second compound 3.16 µM,< 0.0316 µM
same,IC50,second compound 10 µM,< 0.0316 µM
same,"viability, T/C",[1],18.2%
same,"viability, T/C",[2],7.78%
same,"viability, T/C",[3],5.17%
same,"viability, T/C",[4],4.79%
same,"viability, T/C",[5],4.69%
same,"viability, T/C",[6],4.06%
same,"viability, T/C",[7],17.1%
same,"viability, T/C",[8],6.52%
same,"viability, T/C",[9],4.78%
same,"viability, T/C",[10],4.34%
same,"viability, T/C",[11],5.05%
same,"viability, T/C",[12],5.28%
same,"viability, T/C",[13],17.9%
same,"viability, T/C",[14],5.44%
same,"viability, T/C",[15],5.64%
same,"viability, T/C",[16],4.91%
same,"viability, T/C",[17],4.67%
same,"viability, T/C",[18],4.41%
same,"viability, T/C",[19],24.7%
same,"viability, T/C",[20],6.22%
same,"viability, T/C",[21],4.58%
same,"viability, T/C",[22],4.12%
same,"viability, T/C",[23],4.85%
same,"viability, T/C",[24],5.19%
same,"viability, T/C",[25],20.4%
same,"viability, T/C",[26],6.14%
same,"viability, T/C",[27],5.01%
same,"viability, T/C",[28],4.84%
same,"viability, T/C",[29],4.41%
same,"viability, T/C",[30],4.56%
same,"viability, T/C",[31],21.4%
same,"viability, T/C",[32],6.79%
same,"viability, T/C",[33],5.41%
same,"viability, T/C",[34],5.44%
same,"viability, T/C",[35],4.9%
same,"viability, T/C",[36],4.36%
O=C(c1cc(Cc2n[nH]c(=O)c3ccccc23)ccc1F)N1CCN(C(=O)C2CC2)CC1 + Cc1cccc(N(C)C(=O)C2C(O)CCN2c2nc(C)cc(C(F)(F)F)c2C#N)c1,IC50,second compound 0.0316 µM,> 10 µM
same,IC50,second compound 0.1 µM,> 10 µM
same,IC50,second compound 0.316 µM,> 10 µM
same,IC50,second compound 1 µM,> 10 µM
same,IC50,second compound 3.16 µM,> 10 µM
same,IC50,second compound 10 µM,> 10 µM
same,"viability, T/C",[1],87.6%
same,"viability, T/C",[2],101%
same,"viability, T/C",[3],102%
same,"viability, T/C",[4],99.7%
same,"viability, T/C",[5],103%
same,"viability, T/C",[6],82.9%
same,"viability, T/C",[7],94%
same,"viability, T/C",[8],96.2%
same,"viability, T/C",[9],96.5%
same,"viability, T/C",[10],106%
same,"viability, T/C",[11],91.2%
same,"viability, T/C",[12],78.3%
same,"viability, T/C",[13],95.3%
same,"viability, T/C",[14],98.3%
same,"viability, T/C",[15],99.4%
same,"viability, T/C",[16],111%
same,"viability, T/C",[17],95.8%
same,"viability, T/C",[18],86.6%
same,"viability, T/C",[19],104%
same,"viability, T/C",[20],95.1%
same,"viability, T/C",[21],95.8%
same,"viability, T/C",[22],98.2%
same,"viability, T/C",[23],92.9%
same,"viability, T/C",[24],76.8%
same,"viability, T/C",[25],99.3%
same,"viability, T/C",[26],98.6%
same,"viability, T/C",[27],88.5%
same,"viability, T/C",[28],95.9%
same,"viability, T/C",[29],87.7%
same,"viability, T/C",[30],72.9%
same,"viability, T/C",[31],100%
same,"viability, T/C",[32],85.1%
same,"viability, T/C",[33],87.7%
same,"viability, T/C",[34],98%
same,"viability, T/C",[35],90%
same,"viability, T/C",[36],68%
